Reference: PubChem BioAssay AID1963852 (Molecular Pharmacology Branch, DTP, NCI, 2024)

System: 282377-053-R-J1-PDC complex spheroid viability
Assay: Anticancer human tumor 282377-053-R-J1-PDC patient-derived colon adenocarcinoma cell line growth inhibition [POLQ]
Conditions: for IC50: curve of first compound; for viability, T/C: stronger effect = lower value
Protocol: Multicellular complex tumor spheroid response to Polymerase (POL) inhibitors (novobiocin, ART-558, RP6685) in combination with a variety of drugs and investigational agents in selected tumor cell lines
The POL inhibitors (novobiocin, ART-558, and RP6685) were evaluated both individually and in combination with standard of care and investigational anticancer small molecules within a complex spheroid model of solid tumors. . Complex spheroids include a stromal component modeled by human endothelial cells (HUVEC) and fibroblasts modeled by human mesenchymal stem cells (MSCs). The concentration ranges selected for each drug and investigational agent were based upon clinically achievable concentrations if the clinical Cmax of the agent was known.
Compounds. The drugs and investigational agents: novobiocin (NSC847541), ART-558 (NSC835418), RP-6685 (NSC848927), peposertib (NSC802822), ceralasertib (NSC780249), elimusertib (NSC800525), camonsertib (NSC841442), AZD-1390 (NSC803789), olaparib (NSC753686), talazoparib (NSC767125), rucaparib (NSC756644), sotorasib (NSC818433), MRTX-1133 (NSC836407), SN-38 (NSC673596), topotecan (NSC609699), epotoside (NSC141540), doxorubicin (NSC123127), gemcitabine (NSC613327), 5-fluorouracil (NSC19893), paclitaxel (NSC125973), vemurafenib (NSC761431), MSA-2 (NSC828583), SN-011 (NSC837082), adavosertib (NSC754352), prexasertib (NSC758257), carboplatin (NSC241240) and oxaliplatin (NSC266046), were obtained from the National Cancer Institute (NCI) Developmental Therapeutics Program Chemical Repository (21). The FDA-approved anticancer drug set is available from the Developmental Therapeutics Program at https://dtp.cancer.gov/organization/dscb/obtaining/. […] The stock solutions were prepared in dimethyl sulfoxide (DMSO, Sigma-Aldrich, St. Louis, MO, cat. D2650), except for the platinum compounds which were prepared in saline (Quality Biological, Gaithersburg, MD, cat. 114-055-101), at 800-fold the tested concentration and stored at -70 degrees C prior to their use. All drugs and investigational agents were tested over a range starting from a high concentration at or near the clinical Cmax and decreasing in half-log increments. If the clinical Cmax for an agent had not been determined, the highest concentration tested was 10 microM, except for SN-38, which was tested at a high concentration of 1 microM.
Cell Culture. All cells were maintained in an incubator at 37 degrees C and 5% CO2 with 95% humidity. The PDC lines were cultured according to standard operating procedures established by the NCI PDMR (https://pdmr.cancer.gov). Table 3 of the manuscript, lists the cell lines along with the number of the three cell types plated to form the mct-spheroids and media for tumor cell growth. After thawing, all PDC lines, except 997537-175-T-J1-PDC and 415267-285-R-J2-PDC, were cultured in Matrigel-coated flasks prepared with a working solution of 1X Ham's F-12 nutrient mix, without supplementation (Thermo Fisher Scientific, cat. 11765054), 100 U/mL penicillin-streptomycin (Thermo Fisher Scientific, cat. 15140122), and 2.5% Matrigel (Corning Inc., Corning, NY, cat. 354248) for the first three passages. The two PDC lines 997537-175-T-J1-PDC and 415267-285-R-J2-PDC were cultured on uncoated flasks. The 857933-349-R-J2-PDC line was cultured in 6C/Colon 1B media containing advanced DMEM/F-12 (Thermo Fisher Scientific, cat. 12634028), 10 mM HEPES (Thermo Fisher Scientific, cat. 15630080), 1X GlutaMAX supplement (Thermo Fisher Scientific, cat. 35050061), 0.1 mg/mL primocin (InvivoGen, San Diego, CA, cat. ant-pm-2), 10% defined fetal bovine serum, heat inactivated (HyClone Laboratories Inc., Logan, UT, cat. SH30070.03HI), 50% L-WRN conditioned media (ATCC, cat. CRL-3276), 1.25 mM N-Acetyl-L-cysteine (Sigma-Aldrich, cat. A9165), 10 mM nicotinamide (Sigma-Aldrich, cat. N0636), 1X B-27 supplement (Thermo Fisher Scientific, cat. 17504044), 1X N-2 supplement (Thermo Fisher Scientific, cat. […]

[1] = second compound 0.0316 µM, first compound 0.0316 µM
[2] = second compound 0.0316 µM, first compound 0.1 µM
[3] = second compound 0.0316 µM, first compound 0.316 µM
[4] = second compound 0.0316 µM, first compound 1 µM
[5] = second compound 0.1 µM, first compound 0.0316 µM
[6] = second compound 0.1 µM, first compound 0.1 µM
[7] = second compound 0.1 µM, first compound 0.316 µM
[8] = second compound 0.1 µM, first compound 1 µM
[9] = second compound 0.316 µM, first compound 0.0316 µM
[10] = second compound 0.316 µM, first compound 0.1 µM
[11] = second compound 0.316 µM, first compound 0.316 µM
[12] = second compound 0.316 µM, first compound 1 µM
[13] = second compound 1 µM, first compound 0.0316 µM
[14] = second compound 1 µM, first compound 0.1 µM
[15] = second compound 1 µM, first compound 0.316 µM
[16] = second compound 1 µM, first compound 1 µM
[17] = second compound 3.16 µM, first compound 0.0316 µM
[18] = second compound 3.16 µM, first compound 0.1 µM
[19] = second compound 3.16 µM, first compound 0.316 µM
[20] = second compound 3.16 µM, first compound 1 µM
[21] = second compound 10 µM, first compound 0.0316 µM
[22] = second compound 10 µM, first compound 0.1 µM
[23] = second compound 10 µM, first compound 0.316 µM
[24] = second compound 10 µM, first compound 1 µM
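Also: spheroids exposed to compounds for seven days.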
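For viability, T/C in this document: 100% = DMSO vehicle control viability.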

`C#Cc1c(F)ccc2cc(O)cc(-c3ncc4c(N5CC6CCC(C5)N6)nc(OCC56CCCN5CC(F)C6)nc4c3F)c12` (centres undefined) + COC1C(OC(N)=O)C(O)C(Oc2ccc3c(O)c(NC(=O)c4ccc(O)c(CC=C(C)C)c4)c(=O)oc3c2C)OC1(C)C showed an IC50 (second compound 0.0316 µM) greater than 10000 nM, an IC50 (second compound 0.1 µM) greater than 10000 nM and an IC50 (second compound 0.316 µM) greater than 10000 nM. For the same compound, the IC50 (second compound 1 µM) was greater than 10000 nM, the IC50 (second compound 3.16 µM) was greater than 10000 nM and the IC50 (second compound 10 µM) was greater than 10000 nM. It also gave a viability, T/C [1] of 111%, a viability, T/C [2] of 115% and a viability, T/C [3] of 108%. It also gave a viability, T/C [4] of 117%, a viability, T/C (second compound 0.0316 µM, first compound 3.16 µM) of 88.8% and a viability, T/C (second compound 0.0316 µM, first compound 10 µM) of 96.9%. It also gave a viability, T/C [5] of 94.4%, a viability, T/C [6] of 113% and a viability, T/C [7] of 107%. For the same compound, the viability, T/C [8] was 90%, the viability, T/C (second compound 0.1 µM, first compound 3.16 µM) was 96.9% and the viability, T/C (second compound 0.1 µM, first compound 10 µM) was 88.1%. It also gave a viability, T/C [9] of 94%, a viability, T/C [10] of 120% and a viability, T/C [11] of 93.7%. For the same compound, the viability, T/C [12] was 91.5%, the viability, T/C (second compound 0.316 µM, first compound 3.16 µM) was 92.6% and the viability, T/C (second compound 0.316 µM, first compound 10 µM) was 85.6%. The viability, T/C [13] was 104%, the viability, T/C [14] was 96.5% and the viability, T/C [15] was 98.9%. For the same compound, the viability, T/C [16] was 82.5%, the viability, T/C (second compound 1 µM, first compound 3.16 µM) was 112% and the viability, T/C (second compound 1 µM, first compound 10 µM) was 87.8%. For the same compound, the viability, T/C [17] was 104%, the viability, T/C [18] was 88.3% and the viability, T/C [19] was 95.4%. For the same compound, the viability, T/C [20] was 82.3%, the viability, T/C (second compound 3.16 µM, first compound 3.16 µM) was 92.1% and the viability, T/C (second compound 3.16 µM, first compound 10 µM) was 87.7%. The viability, T/C [21] was 100%, the viability, T/C [22] was 91.2% and the viability, T/C [23] was 102%. It also gave a viability, T/C [24] of 93.7%, a viability, T/C (second compound 10 µM, first compound 3.16 µM) of 74.8% and a viability, T/C (second compound 10 µM, first compound 10 µM) of 86.8%.

Work on `CCc1c2c(nc3ccc(O)cc13)-c1cc3c(c(=O)n1C2)COC(=O)[C@]3(O)CC` + COC1C(OC(N)=O)C(O)C(Oc2ccc3c(O)c(NC(=O)c4ccc(O)c(CC=C(C)C)c4)c(=O)oc3c2C)OC1(C)C yielded an IC50 (second compound 0.0316 µM) of 92.1 nM, an IC50 (second compound 0.1 µM) of 115 nM and an IC50 (second compound 0.316 µM) of 114 nM. For the same compound, the IC50 (second compound 1 µM) was 78.9 nM, the IC50 (second compound 3.16 µM) was 41.2 nM and the IC50 (second compound 10 µM) was 52.1 nM. The viability, T/C (second compound 0.0316 µM, first compound 0.00316 µM) was 111%, the viability, T/C (second compound 0.0316 µM, first compound 0.01 µM) was 71.8% and the viability, T/C [1] was 59.8%. For the same compound, the viability, T/C [2] was 54%, the viability, T/C [3] was 30.7% and the viability, T/C [4] was 19.4%. The viability, T/C (second compound 0.1 µM, first compound 0.00316 µM) was 108%, the viability, T/C (second compound 0.1 µM, first compound 0.01 µM) was 90.1% and the viability, T/C [5] was 64.6%. For the same compound, the viability, T/C [6] was 51.8%, the viability, T/C [7] was 37.6% and the viability, T/C [8] was 19.2%. For the same compound, the viability, T/C (second compound 0.316 µM, first compound 0.00316 µM) was 124%, the viability, T/C (second compound 0.316 µM, first compound 0.01 µM) was 81.2% and the viability, T/C [9] was 60.7%. For the same compound, the viability, T/C [10] was 51%, the viability, T/C [11] was 37.7% and the viability, T/C [12] was 18.6%. It also gave a viability, T/C (second compound 1 µM, first compound 0.00316 µM) of 116%, a viability, T/C (second compound 1 µM, first compound 0.01 µM) of 93.8% and a viability, T/C [13] of 49.3%. The viability, T/C [14] was 59.1%, the viability, T/C [15] was 30.9% and the viability, T/C [16] was 21.6%. It also gave a viability, T/C (second compound 3.16 µM, first compound 0.00316 µM) of 115%, a viability, T/C (second compound 3.16 µM, first compound 0.01 µM) of 75.6% and a viability, T/C [17] of 46.3%. For the same compound, the viability, T/C [18] was 47.8%, the viability, T/C [19] was 38.6% and the viability, T/C [20] was 25%. For the same compound, the viability, T/C (second compound 10 µM, first compound 0.00316 µM) was 102%, the viability, T/C (second compound 10 µM, first compound 0.01 µM) was 72.6% and the viability, T/C [21] was 56%. For the same compound, the viability, T/C [22] was 39.2%, the viability, T/C [23] was 41.9% and the viability, T/C [24] was 16.6%.
